Experimental findings from patent publication US8557831B2, “Compositions and methods for treatment and prevention of insulin resistance” (University of Florida Research Foundation, Inc., priority 2004, dated 2013) are described below.

Assay [1] deals with Male Sprague-Dawley rats. Nature of the assay: Systolic blood pressure by tail-cuff sphygmomanometer in hyperuricemic rats. The class given is in vivo, rat. The note with it: 7 days, p=NS.
Assay [2] deals with Male Sprague-Dawley rats. Nature of the assay: Serum uric acid concentration in oxonic acid-induced hyperuricemia rat model. In kind it is in vivo. As to the method: (§1) Male Sprague-Dawley rats were housed in standard conditions and fed normal diets. Hyperuricemia was induced with an uricase inhibitor, oxonic acid (OA; 750 mg/kg/day), by gavage, with control rats receiving vehicle. Allopurinol (AP) was used to block hyperuricemia by placing AP in the drinking water (150 mg/L). Rats were divided into four groups: (1) Control, (2) AP only, (3) OA only, and (4) OA+AP. Systolic blood pressure was measured using a tail-cuff sphygmomanometer. The amount of drinking water consumed and changes in body weight were noted. Rats were sacrificed at one and seven days. Serum was analyzed for uric acid concentration and nitrites/nitrates (NOx) by chemiluminescence method. (Prabhakar S S: Inhibition of mesangial iNOS by reduced extracellular pH is associated with uncoupling of NADPH oxidation. Kidney Int 61:2015-2024, 2002). Statistical analysis between subgroups was performed using ANOVA.

Assay [3] deals with Male Sprague-Dawley rats. The assay can be described thus: Serum nitrites/nitrates (NOx) by chemiluminescence method in hyperuricemic rats. The class given is in vivo, rat. The protocol: as §1

`O=C(O)c1nc(=O)[nH]c(=O)[nH]1` [OA, oxonic acid]: the systolic blood pressure in assay [1] is 178±18 mm Hg. In addition, the serum uric acid is 1.7 ± 0.7 mg/dL in assay [2] (OA only group, 750 mg/kg/day by gavage, 1 day) and 1.8 ± 0.4 mg/dL in assay [2] (OA only group, 750 mg/kg/day by gavage, 7 days). Also, the “serum nitrites and nitrates (NOx)” value in assay [3] (OA only group, 1 day) was determined as 15.6 ± 0.4 µmol/L; in assay [3] (OA only group, 7 days), 14.6 ± 1.1 µmol/L. For the same compound, the “reduction of serum nitrites and nitrates (NOx) vs. Control” value in assay [3] (hyperuricemic (OA) rats, at both 1 day and 7 days) is given as 40-50%.

On to `Oc1ncnc2[nH]ncc12` [AP, Allopurinol], for which the serum uric acid was 0.3 ± 0.2 mg/dL in assay [2] (OA+AP group (AP 150 mg/L in drinking water), 7 days) and 1.52 ± 0.3 mg/dL in assay [2] (OA+AP group (AP 150 mg/L in drinking water), day 1). Further, in assay [2] (rats treated with AP alone), the “change in serum UA concentration” value is recorded as “did not show a significant change”. For the same compound, the “serum nitrites and nitrates (NOx)” value in assay [3] (OA+AP group, 1 day) came to 17.4 ± 0.8 µmol/L; in assay [3] (OA+AP group, 7 days), 25.0 ± 0.8 µmol/L. The “change in serum NOx concentration” value in assay [3] (rats treated with AP alone) is on record as “did not show a significant change”.
